The values that follow come from patent US11932636B2, “RAD51 inhibitors” (Cyteir Therapeutics, Inc., priority 2019, dated 2024).

This experiment concerns Daudi cells (AID positive). Nature of the experiment: Compound primary screening: cell death in AID positive Daudi cells (Cell-Titer Glo, Day 7). The experiment is classed as cell-based. Particulars: Homo sapiens, 168 h; Daudi cells, AID positive; cell death on Day 7, Cell-Titer Glo; read-out: Cellular activity in AID + (Daudi). In short, it runs like this: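 AID-positive Daudi cells were seeded at 1250 cells per well and treated with serially diluted compound delivered from a DMSO/media master plate. Cultures were incubated at 37 °C, and cell death was measured on Day 7 with Cell-Titer Glo luminescence.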

On to `CCNS(=O)(=O)c1cc(Nc2ccnc(=O)[nH]2)ccc1-c1cnc([C@H]2CC[C@H](NC(=O)OC(C)C)CC2)s1` [Compound 156, isopropyl trans-N-[4-[5-[2-(ethylsulfamoyl)-4-[(2-hydroxypyrimidin-4-yl)amino]phenyl]thiazol-2-yl]cyclohexyl]carbamate], for which the EC50 lay within 100 to 1000 nM. As for `CCNS(=O)(=O)c1cc(Nc2ccc(CC)nn2)ccc1-c1cnc([C@H]2CC[C@H](NC(=O)OC(C)C)CC2)s1` [Compound 157, isopropyl trans-N-[4-[5-[4-[(6-ethylpyridazin-3-yl)amino]-2-(ethylsulfamoyl)phenyl]thiazol-2-yl]cyclohexyl]carbamate], the EC50 is less than 100 nM. To `CCNS(=O)(=O)c1cc(Nc2cc(CC)cnn2)ccc1-c1cnc([C@H]2CC[C@H](NC(=O)OC(C)C)CC2)s1` [Compound 158, isopropyl trans-N-[4-[5-[4-[(5-ethylpyridazin-3-yl)amino]-2-(ethylsulfamoyl)phenyl]thiazol-2-yl]cyclohexyl]carbamate] belongs 100 to 1000 nM. To `CCNS(=O)(=O)c1cc(Nc2ccc(Cl)nn2)ccc1-c1cnc([C@H]2CC[C@H](NC(=O)OC(C)C)CC2)s1` [Compound 159, isopropyl trans-N-[4-[5-[4-[(6-chloropyridazin-3-yl)amino]-2-(ethylsulfamoyl)phenyl]thiazol-2-yl]cyclohexyl]carbamate] belongs less than 100 nM; to `CCNS(=O)(=O)c1cc(Nc2ccc(=O)[nH]n2)ccc1-c1cnc([C@H]2CC[C@H](NC(=O)OC(C)C)CC2)s1` [Compound 160, isopropyl trans-N-[4-[5-[2-(ethylsulfamoyl)-4-[(6-oxo-1H-pyridazin-3-yl)amino]phenyl]thiazol-2-yl]cyclohexyl]carbamate], 100 to 1000 nM; to `CCNS(=O)(=O)c1cc(Nc2cc(C)cnn2)ccc1-c1cnc([C@H]2CC[C@H](NC(=O)OC(C)C)CC2)s1` [Compound 161, isopropyl trans-N-[4-[5-[2-(ethylsulfamoyl)-4-[(5-methylpyridazin-3-yl)amino]phenyl]thiazol-2-yl]cyclohexyl]carbamate], less than 100 nM. To `CCNS(=O)(=O)c1cc(Nc2ccc(C)nn2)ccc1-c1cnc([C@H]2CC[C@H](NC(=O)OC(C)C)CC2)s1` [Compound 162, isopropyl trans-N-[4-[5-[2-(ethylsulfamoyl)-4-[(6-methylpyridazin-3-yl)amino]phenyl]thiazol-2-yl]cyclohexyl]carbamate] belongs less than 100 nM.

`CCNS(=O)(=O)c1cc(Nc2cnc(C(C)C)cn2)ccc1-c1cnc([C@H]2CC[C@H](NC(=O)OC(C)C)CC2)s1` [Compound 163, isopropyl trans-N-[4-[5-[2-(ethylsulfamoyl)-4-[(5-isopropylpyrazin-2-yl)amino]phenyl]thiazol-2-yl]cyclohexyl]carbamate]: the EC50 was in the range of 100 to 1000 nM. For `CCNS(=O)(=O)c1cc(Nc2cc(C(C)C)cnn2)ccc1-c1cnc([C@H]2CC[C@H](NC(=O)OC(C)C)CC2)s1` [Compound 164, isopropyl trans-N-[4-[5-[2-(ethylsulfamoyl)-4-[(5-isopropylpyridazin-3-yl)amino]phenyl]thiazol-2-yl]cyclohexyl]carbamate] the value was 100 to 1000 nM. For `CCNS(=O)(=O)c1cc(NC2(C)COC2)ccc1-c1cnc([C@H]2CC[C@H](NC(=O)OC)CC2)s1` [Compound 165, methyl trans-N-[4-[5-[2-(ethylsulfamoyl)-4-[(3-methyl-oxetan-3-yl)amino]phenyl]thiazol-2-yl]cyclohexyl]carbamate] the value was 1000 to 10000 nM; for `CCNS(=O)(=O)c1cc(Nc2cn[nH]c2)ccc1-c1cnc([C@H]2CC[C@H](NC(=O)OC)CC2)s1` [Compound 166, methyl trans-N-[4-[5-[2-(ethylsulfamoyl)-4-[(1H-pyrazol-4-yl)amino]phenyl]thiazol-2-yl]cyclohexyl]carbamate], 1000 to 10000 nM; for `CCNS(=O)(=O)c1cc(Nc2ccn[nH]2)ccc1-c1cnc([C@H]2CC[C@H](NC(=O)OC)CC2)s1` [Compound 167, methyl trans-N-[4-[5-[2-(ethylsulfamoyl)-4-[(1H-pyrazol-5-yl)amino]phenyl]thiazol-2-yl]cyclohexyl]carbamate], 100 to 1000 nM. To `CCNS(=O)(=O)c1cc(Nc2ccnn2C(C)C)ccc1-c1cnc([C@H]2CC[C@H](NC(=O)OC(C)(C)C)CC2)s1` [Compound 170, tert-butyl trans-N-[4-[5-[2-(ethylsulfamoyl)-4-[(2-isopropylpyrazol-3-yl)amino]phenyl]thiazol-2-yl]cyclohexyl]carbamate] belongs 100 to 1000 nM; to `CCNS(=O)(=O)c1cc(Nc2cc(C(C)C)ncn2)ccc1-c1cnc([C@H]2CC[C@H](NC(=O)OC(C)C)CC2)s1` [Compound 171, isopropyl trans-N-[4-[5-[2-(ethylsulfamoyl)-4-[(6-isopropylpyrimidin-4-yl)amino]phenyl]thiazol-2-yl]cyclohexyl]carbamate], 100 to 1000 nM.

Turning to `CCNS(=O)(=O)c1cc(Nc2ccc(=O)n(C)n2)ccc1-c1cnc([C@H]2CC[C@H](NC(=O)OC(C)C)CC2)s1` [Compound 172, isopropyl trans-N-[4-[5-[2-(ethylsulfamoyl)-4-[(1-methyl-6-oxo-pyridazin-3-yl)amino]phenyl]thiazol-2-yl]cyclohexyl]carbamate], the EC50 lay in the range of 100 to 1000 nM. To `CC(C)OC(=O)N[C@H]1CC[C@H](c2ncc(-c3ccc(Nc4ccc(Cl)nn4)cc3S(=O)(=O)NC(C)(C)C)s2)CC1` [Compound 173, isopropyl trans-N-[4-[5-[2-(tert-butylsulfamoyl)-4-[(6-chloropyridazin-3-yl)amino]phenyl]thiazol-2-yl]cyclohexyl]carbamate] belongs 100 to 1000 nM; to `CC(C)OC(=O)N[C@H]1CC[C@H](c2ncc(-c3ccc(Nc4cccnn4)cc3S(=O)(=O)NC(C)(C)C)s2)CC1` [Compound 174, isopropyl trans-N-[4-[5-[2-(tert-butylsulfamoyl)-4-(pyridazin-3-ylamino)phenyl]thiazol-2-yl]cyclohexyl]carbamate], 100 to 1000 nM.
